Measured values published in ChEMBL document CHEMBL4476867, “Hydroxy formamide derivatives and their use” (2016).

Experiments:
[1] = molecular target: T1, Bone morphogenetic protein 1 (Homo sapiens, UniProt P13497); assay: Inhibition of C-terminal FLAG-6x-His epitope tagged and N-terminal human RAGE signal sequence tagged human BMP1 (23 to 721 amino acids) expressed in CHO-E1 cells pre-incubated for 10 mins before promyostatin peptide substrate addition and measured after 30 mins using 50 nM BMP1 by FRET based assay; format: cell-based
T1 sequence (P13497 whole entry): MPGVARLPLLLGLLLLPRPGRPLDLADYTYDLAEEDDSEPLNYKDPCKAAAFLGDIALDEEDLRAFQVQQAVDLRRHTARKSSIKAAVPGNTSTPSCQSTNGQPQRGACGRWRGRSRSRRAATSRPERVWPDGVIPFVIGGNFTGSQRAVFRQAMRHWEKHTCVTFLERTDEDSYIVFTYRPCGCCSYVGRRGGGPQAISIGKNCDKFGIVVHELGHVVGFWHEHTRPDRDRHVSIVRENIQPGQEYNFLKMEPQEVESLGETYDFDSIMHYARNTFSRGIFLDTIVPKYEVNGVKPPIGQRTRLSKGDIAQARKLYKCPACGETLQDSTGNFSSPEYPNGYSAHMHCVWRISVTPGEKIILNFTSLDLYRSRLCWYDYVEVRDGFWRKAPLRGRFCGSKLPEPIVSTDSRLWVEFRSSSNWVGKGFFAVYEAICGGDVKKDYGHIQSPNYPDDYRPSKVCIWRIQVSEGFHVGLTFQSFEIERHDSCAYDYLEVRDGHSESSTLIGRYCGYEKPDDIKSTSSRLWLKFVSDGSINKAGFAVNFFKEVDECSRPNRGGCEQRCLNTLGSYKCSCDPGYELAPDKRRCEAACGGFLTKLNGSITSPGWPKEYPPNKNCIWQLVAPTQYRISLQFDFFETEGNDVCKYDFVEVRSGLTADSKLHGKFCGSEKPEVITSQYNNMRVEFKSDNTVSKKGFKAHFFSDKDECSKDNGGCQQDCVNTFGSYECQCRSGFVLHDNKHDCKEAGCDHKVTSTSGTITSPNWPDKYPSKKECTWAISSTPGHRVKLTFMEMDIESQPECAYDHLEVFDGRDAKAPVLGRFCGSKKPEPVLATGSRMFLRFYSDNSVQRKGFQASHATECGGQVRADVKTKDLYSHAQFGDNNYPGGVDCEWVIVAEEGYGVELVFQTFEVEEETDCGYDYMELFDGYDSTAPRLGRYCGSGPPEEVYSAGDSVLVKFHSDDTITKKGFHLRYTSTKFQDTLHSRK

[2] = Reduction in PICP levels in human cardiac fibroblasts incubated for 24 to 48 hrs by ELISA; format: functional
How it was run: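 Human cardiac fibroblasts no older than passage 6 were seeded at 10,000 to 15,000 cells per well in 96-well plates and, one day later, exposed for 24 to 48 hr at 37° C to treatment in ficoll crowding EMEM with 100 μM ascorbic acid and less than 0.3% DMSO. IC50 was determined in GraphPad Prism from a log(inhibitor)-response fit of procollagen I C-terminal propeptide levels in the medium, measured by Quidel ELISA and expressed relative to untreated controls.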

[3] = molecular target: T1, Bone morphogenetic protein 1; assay: Inhibition of C-terminal FLAG-6x-His epitope tagged and N-terminal human RAGE signal sequence tagged human BMP1 (23 to 721 amino acids) expressed in CHO-E1 cells pre-incubated for 10 mins before promyostatin peptide substrate addition and measured after 60 mins using 0.5 nM BMP1 by FRET based assay; format: cell-based
Tolloid-like protein 2 = molecular target: T2, Tolloid-like protein 2 (Homo sapiens, UniProt Q9Y6L7); assay: Inhibition of C-terminal Avi-6x-His epitope tagged and N-terminal human RAGE signal sequence tagged recombinant human TLL2 (26 to 1015 amino acids) expressed in CHOE1A cells incubated for 60 mins with promyostatin peptide substrate by FRET based assay; format: cell-based
T2 sequence (Q9Y6L7 whole entry): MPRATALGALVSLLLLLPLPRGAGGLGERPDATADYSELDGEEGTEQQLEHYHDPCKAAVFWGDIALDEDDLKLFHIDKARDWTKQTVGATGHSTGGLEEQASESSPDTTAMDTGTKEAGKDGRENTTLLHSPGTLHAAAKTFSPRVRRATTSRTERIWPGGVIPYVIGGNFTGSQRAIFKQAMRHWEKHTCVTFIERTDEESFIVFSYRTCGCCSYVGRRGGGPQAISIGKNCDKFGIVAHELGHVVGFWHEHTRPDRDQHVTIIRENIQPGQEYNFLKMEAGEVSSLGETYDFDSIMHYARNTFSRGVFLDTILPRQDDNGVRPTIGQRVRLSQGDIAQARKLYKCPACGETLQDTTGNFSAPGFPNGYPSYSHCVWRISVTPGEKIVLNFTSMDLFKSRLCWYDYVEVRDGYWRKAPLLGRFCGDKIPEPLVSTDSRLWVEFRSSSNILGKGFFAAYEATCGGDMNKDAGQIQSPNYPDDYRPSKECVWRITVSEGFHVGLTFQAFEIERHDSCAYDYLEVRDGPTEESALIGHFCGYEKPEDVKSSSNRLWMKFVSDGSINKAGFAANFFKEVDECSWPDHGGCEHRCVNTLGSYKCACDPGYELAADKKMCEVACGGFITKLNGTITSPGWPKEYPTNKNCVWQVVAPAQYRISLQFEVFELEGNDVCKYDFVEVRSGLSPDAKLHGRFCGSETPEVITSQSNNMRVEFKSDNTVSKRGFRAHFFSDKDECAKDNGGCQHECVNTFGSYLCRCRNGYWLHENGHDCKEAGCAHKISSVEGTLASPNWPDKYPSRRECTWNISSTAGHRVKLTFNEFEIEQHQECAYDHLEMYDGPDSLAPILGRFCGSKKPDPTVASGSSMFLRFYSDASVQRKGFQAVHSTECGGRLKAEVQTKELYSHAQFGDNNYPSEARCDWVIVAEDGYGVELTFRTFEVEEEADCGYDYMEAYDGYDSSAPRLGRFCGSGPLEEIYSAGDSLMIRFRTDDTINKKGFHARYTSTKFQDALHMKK

Tolloid-like protein 1 = Tolloid-like protein 1 (Homo sapiens, UniProt O43897, I156V/N221S/V284A); assay: Inhibition of recombinant human TLL1 I156V/N221S/V284A mutant expressed in CHOE1A cells pre-incubated for 10 mins before promyostatin peptide substrate addition and measured after 60 mins by FRET based assay; format: cell-based
Chain of Tolloid-like protein 1 (O43897 148-1013 I156V/N221S/V284A limits assumed): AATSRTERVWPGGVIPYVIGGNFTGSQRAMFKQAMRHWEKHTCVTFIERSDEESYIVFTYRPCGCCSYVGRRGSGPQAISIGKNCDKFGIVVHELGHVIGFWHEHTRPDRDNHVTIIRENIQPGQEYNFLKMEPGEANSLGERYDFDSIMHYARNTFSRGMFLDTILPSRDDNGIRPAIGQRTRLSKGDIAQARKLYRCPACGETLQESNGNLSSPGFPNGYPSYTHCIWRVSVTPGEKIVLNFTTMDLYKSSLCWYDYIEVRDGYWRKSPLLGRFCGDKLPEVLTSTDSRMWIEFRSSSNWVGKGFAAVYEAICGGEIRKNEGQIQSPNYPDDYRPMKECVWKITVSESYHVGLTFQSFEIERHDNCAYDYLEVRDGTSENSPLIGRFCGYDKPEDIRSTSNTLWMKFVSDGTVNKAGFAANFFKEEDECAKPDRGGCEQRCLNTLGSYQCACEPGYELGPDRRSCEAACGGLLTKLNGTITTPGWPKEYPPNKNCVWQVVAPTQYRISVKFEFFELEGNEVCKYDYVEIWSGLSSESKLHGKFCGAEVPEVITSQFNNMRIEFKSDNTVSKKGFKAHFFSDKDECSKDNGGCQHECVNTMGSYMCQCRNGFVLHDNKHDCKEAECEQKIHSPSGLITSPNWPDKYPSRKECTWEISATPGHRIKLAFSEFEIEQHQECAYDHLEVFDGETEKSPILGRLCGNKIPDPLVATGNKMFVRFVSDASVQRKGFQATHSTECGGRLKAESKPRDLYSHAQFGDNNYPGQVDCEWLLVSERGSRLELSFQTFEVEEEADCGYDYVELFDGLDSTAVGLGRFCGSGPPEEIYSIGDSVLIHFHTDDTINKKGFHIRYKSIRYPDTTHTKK

Row | Structure (SMILES) | IC50 [1] [nM] | IC50 [2] [nM] | IC50 [3] [nM] | IC50 (Tolloid-like protein 2) [nM] | IC50 (Tolloid-like protein 1) [nM]
1 | CCCCC[C@H](CN(O)C=O)C(=O)NCNC(=O)c1ccc(-c2cccc(OCC)c2)o1 | < 200 | < 3980 | < 126 | < 794 | < 398
2 | CCCCC[C@@H](C(=O)NCNC(=O)c1ccc(-c2ccc(C(=O)O)c(OCC)c2)o1)[C@@H](CC)N(O)C=O | < 200 | < 3980 | < 126 | < 794 | < 398
3 | CCCCC[C@@H](C(=O)NCNC(=O)c1ccc(-c2ccc(CC(=O)O)c(OCC)c2)o1)[C@@H](CC)N(O)C=O | < 200 | < 3980 | < 126 | < 794 | < 398
4 | CCCCC[C@H](CN(O)C=O)C(=O)NCNC(=O)c1ccc(-c2cccc(OCC(F)(F)F)c2)o1 | < 200 | < 3980 | < 126 | < 794 | < 398
5 | CCCCC[C@@H](C(=O)NCNC(=O)c1ccc(-c2ccc(C3(C(=O)O)CC3)cc2)o1)[C@@H](CC)N(O)C=O | < 200 | < 3980 | < 126 | < 794 | < 398
6 | CCCCC[C@@H](C(=O)NCNC(=O)c1ccc(-c2ccc(C(C)(C)C(=O)O)cc2)o1)[C@@H](CC)N(O)C=O | < 200 | < 3980 | < 126 | < 794 | < 398
7 | CCCCC[C@H](CN(O)C=O)C(=O)NCNC(=O)c1ccc(-c2cccc(N(C)C)c2)o1 | < 200 | < 3980 | < 126 | < 794 | < 398
8 | CCCCC[C@@H](C(=O)NCNC(=O)c1ccc(-c2cc(CC(=O)O)cc(OCC)c2)o1)[C@@H](CC)N(O)C=O | < 200 | < 3980 | < 126 |  | 
9 | CCCCC[C@@H](C(=O)NCNC(=O)c1ccc(-c2ccc(CC(=O)O)cc2)o1)[C@@H](CC)N(O)C=O | < 200 | < 3980 | < 126 | < 794 | < 398
10 | CCCCC[C@H](CN(O)C=O)C(=O)NCNC(=O)c1ccc(-c2cccc(OC(C)C)c2)o1 | < 200 | < 3980 | < 126 |  | < 398
11 | CCCCC[C@H](CN(O)C=O)C(=O)NCNC(=O)c1ccc(-c2cccc(OC(F)F)c2)o1 | < 200 | < 3980 | < 126 | < 794 | < 398
12 | CCCCC[C@@H](C(=O)NCNC(=O)c1ccc(-c2cc(OCC)cc(C(=O)NCC(=O)O)c2)o1)[C@@H](CC)N(O)C=O | < 200 | < 3980 | < 126 |  | 
13 | CCCCC[C@H](CN(O)C=O)C(=O)NCNC(=O)c1ccc(-c2cc(OC)ccn2)o1 | < 200 | < 3980 | < 126 | < 794 | < 398
14 | CCCCC[C@H](CN(O)C=O)C(=O)NCNC(=O)c1ccc(-c2cc(OCC)cc(C(=O)OC)c2)o1 | < 200 | < 3980 | < 126 | < 794 | < 398
15 | CCCCC[C@H](CN(O)C=O)C(=O)NCNC(=O)c1ccc(-c2cccc(OC(F)(F)F)c2)o1 | < 200 | < 3980 | < 126 | < 794 | < 398
16 | CCCCC[C@H](CN(O)C=O)C(=O)NCNC(=O)c1ccc(-c2cccc(C(=O)OC)c2)o1 | < 200 | < 3980 | < 126 | < 794 | < 398
17 | CCCCC[C@@H](C(=O)NCNC(=O)c1ccc(-c2cc(OCC)cc(C(=O)N[C@@H](CCC(=O)O)C(=O)OC(C)(C)C)c2)o1)[C@@H](CC)N(O)C=O | < 200 | < 3980 | < 126 | < 794 | < 398
18 | CCCCC[C@H](CN(O)C=O)C(=O)NCNC(=O)c1ccc(-c2cc(OCC)cc(C(=O)NCCN)c2)o1 | < 200 | < 3980 | < 126 |  | 
19 | CCCCC[C@H](CN(O)C=O)C(=O)NCNC(=O)c1ccc(-c2cccc(S(=O)(=O)NC(=O)CC)c2)o1 | < 200 | < 3980 | < 126 | < 794 | < 398
20 | CCCCC[C@@H](C(=O)NCNC(=O)c1ccc(-c2cc(OCC)cc(C(=O)N[C@@H](CCC(=O)OC)C(=O)OC)c2)o1)[C@@H](CC)N(O)C=O | < 200 | < 3980 | < 126 | < 794 | < 398
21 | CCCCC[C@H](CN(O)C=O)C(=O)NCNC(=O)c1ccc(-c2cc(OCC)cc(C(=O)O)c2)o1 | < 200 | < 3980 | < 126 | < 794 | < 398
22 | CCCCC[C@H](CN(O)C=O)C(=O)NCNC(=O)c1ccc(-c2cccc(S(=O)(=O)NC)c2)o1 | < 200 | < 3980 | < 126 | < 794 | < 398
23 | CCCCC[C@H](CN(O)C=O)C(=O)NCNC(=O)c1ccc(-c2cccc(S(N)(=O)=O)c2)o1 | < 200 | < 3980 | < 126 | < 794 | < 398
24 | CCCCC[C@H](CN(O)C=O)C(=O)NCNC(=O)c1ccc(-c2cc(OC)cc(C(=O)O)c2)o1 | < 200 | < 3980 | < 126 | < 794 | < 398
25 | CCCCC[C@H](CN(O)C=O)C(=O)NCNC(=O)c1ccc(-c2cc(OC)cc(C(=O)NCCN)c2)o1 | < 200 | < 3980 | < 126 | < 794 | < 398
26 | CCCCC[C@@H](C(=O)NCNC(=O)c1ccc(-c2cc(OCC)cc(C(=O)NCCN)c2)o1)[C@@H](CC)N(O)C=O | < 200 | < 3980 | < 126 | < 794 | < 398
27 | CCOc1cc(-c2ccc(C(=O)NCNC(=O)[C@H](CCc3ccc4ccccc4c3)[C@@H](CC)N(O)C=O)o2)cc(P(=O)(O)O)c1 | < 200 | < 3980 | < 126 |  | 
